Experimental data as given in US6680289B1, “Methods, compositions, and articles for odor control” (The Proctor & Gamble Company, priority 1999, dated 2004).

How the values were obtained:
[1] = cited from earlier work
[2] = Interaction of perfume components with cyclodextrin (CD); type: physicochemical; settings: perfume component with cyclodextrin
Text: The following table illustrates the molecular weight property of some of the preferred perfume versus non-preferred perfume components.

Compound | solubility in water [1] | CD interaction [2]
ClC=CC[N+]12CN3CN(CN(C3)C1)C2.[Cl-] [Dowicil 200, 1-(3-Chlorallyl) -3,5,7-triaza-1-azoniaadamantane chloride] | freely soluble in water | –
CCC(C)(O)CCCC(C)C (centres unmarked) [Tetrahydrolinalol] | – | significant
